Results published in patent publication US11109593B2, “Isoxazolin-5-one derivative and herbicide containing same as active ingredient” (HOKKO CHEMICAL INDUSTRY CO., LTD., priority 2017, dated 2021).

tested on: Chenopodium album; assay: Test Example 3: herbicidal effect test by treatment of dry field farming soil (one day after seeding); format: in vivo; conditions: 120 g/10a active ingredient, evaluated 14 days after treatment
In short: (§1)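 Herbicidal rate (%) = {1 − treated/untreated mean plant dry weight} × 100, scored 14 days after spraying, duplicate pots per concentration. Emulsified compound was water-diluted and applied to soil surface one day post-seeding at 120 g a.i. per 10 ares.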

| SMILES | herbicidal rate, Chenopodium album [%] |
| --- | --- |
| CCNC(=O)N(c1ccccc1Cc1c(C)n(C(C)c2ccccc2)oc1=O)S(=O)(=O)C(F)(F)F (stereo not drawn) [Compound 1-874] | 90 |
| C#CCn1oc(=O)c(Cc2ccccc2NS(=O)(=O)C(F)(F)F)c1C [Compound 1-138] | 0 |
| Cc1c(Cc2ccccc2N(S(=O)(=O)C(F)(F)F)S(=O)(=O)C(F)(F)F)c(=O)on1C(C)Cc1ccccc1 (stereo not drawn) [Compound 1-1045] | 40 |

tested on: Echinochloa crus-galli; assay: as above; format: in vivo; conditions: 120 g/10a active ingredient, evaluated 14 days after treatment
In short: as §1

| SMILES | herbicidal rate, Echinochloa crus-galli [%] |
| --- | --- |
| CCNC(=O)N(c1ccccc1Cc1c(C)n(C(C)c2ccccc2)oc1=O)S(=O)(=O)C(F)(F)F (stereo not drawn) [Compound 1-874] | 90 |
| C#CCn1oc(=O)c(Cc2ccccc2NS(=O)(=O)C(F)(F)F)c1C [Compound 1-138] | 90 |
| Cc1c(Cc2ccccc2N(S(=O)(=O)C(F)(F)F)S(=O)(=O)C(F)(F)F)c(=O)on1C(C)Cc1ccccc1 (stereo not drawn) [Compound 1-1045] | 90 |

tested on: Amaranthus viridis; assay: as above; format: in vivo; conditions: 120 g/10a active ingredient, evaluated 14 days after treatment
In short: as §1

| SMILES | herbicidal rate, Amaranthus viridis [%] |
| --- | --- |
| CCNC(=O)N(c1ccccc1Cc1c(C)n(C(C)c2ccccc2)oc1=O)S(=O)(=O)C(F)(F)F (stereo not drawn) [Compound 1-874] | 90 |
| C#CCn1oc(=O)c(Cc2ccccc2NS(=O)(=O)C(F)(F)F)c1C [Compound 1-138] | 0 |
| Cc1c(Cc2ccccc2N(S(=O)(=O)C(F)(F)F)S(=O)(=O)C(F)(F)F)c(=O)on1C(C)Cc1ccccc1 (stereo not drawn) [Compound 1-1045] | 40 |

tested on: southern crabgrass; assay: as above; format: in vivo; conditions: 120 g/10a active ingredient, evaluated 14 days after treatment
In short: as §1

| SMILES | herbicidal rate, southern crabgrass [%] |
| --- | --- |
| CCNC(=O)N(c1ccccc1Cc1c(C)n(C(C)c2ccccc2)oc1=O)S(=O)(=O)C(F)(F)F (stereo not drawn) [Compound 1-874] | 90 |
| C#CCn1oc(=O)c(Cc2ccccc2NS(=O)(=O)C(F)(F)F)c1C [Compound 1-138] | 90 |
| Cc1c(Cc2ccccc2N(S(=O)(=O)C(F)(F)F)S(=O)(=O)C(F)(F)F)c(=O)on1C(C)Cc1ccccc1 (stereo not drawn) [Compound 1-1045] | 50 |

tested on: Chenopodium album; assay: Test Example 4: herbicidal effect test by treatment of leave and stem in dry field farming (seven days after seeding); format: in vivo; conditions: 120 g/10a active ingredient; emulsion sprayed seven days after seeding; evaluated 14 days after treatment
In short: (§2)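 Twenty seeds per species were mixed into the top 1 cm of alluvial soil in 36 cm^2 pots; emulsions were sprayed seven days after seeding at 100 L per 10 ares (120 g active ingredient per 10 ares). Herbicidal rate (%) = {1 − treated/untreated mean dry weight} × 100, 14 days after treatment, duplicate.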

| SMILES | herbicidal effect (herbicidal rate), Chenopodium album [%] |
| --- | --- |
| CCNC(=O)N(c1ccccc1Cc1c(C)n(C(C)c2ccccc2)oc1=O)S(=O)(=O)C(F)(F)F (stereo not drawn) [Compound 1-874] | 40 |
| C#CCn1oc(=O)c(Cc2ccccc2NS(=O)(=O)C(F)(F)F)c1C [Compound 1-138] | 0 |
| Cc1c(Cc2ccccc2N(S(=O)(=O)C(F)(F)F)S(=O)(=O)C(F)(F)F)c(=O)on1C(C)Cc1ccccc1 (stereo not drawn) [Compound 1-1045] | 0 |

tested on: Echinochloa crus-galli; assay: as above; format: in vivo; conditions: 120 g/10a active ingredient; emulsion sprayed seven days after seeding; evaluated 14 days after treatment
In short: as §2

| SMILES | herbicidal effect (herbicidal rate), Echinochloa crus-galli [%] |
| --- | --- |
| CCNC(=O)N(c1ccccc1Cc1c(C)n(C(C)c2ccccc2)oc1=O)S(=O)(=O)C(F)(F)F (stereo not drawn) [Compound 1-874] | 90 |
| C#CCn1oc(=O)c(Cc2ccccc2NS(=O)(=O)C(F)(F)F)c1C [Compound 1-138] | 80 |
| Cc1c(Cc2ccccc2N(S(=O)(=O)C(F)(F)F)S(=O)(=O)C(F)(F)F)c(=O)on1C(C)Cc1ccccc1 (stereo not drawn) [Compound 1-1045] | 90 |

tested on: Amaranthus viridis; assay: as above; format: in vivo; conditions: 120 g/10a active ingredient; emulsion sprayed seven days after seeding; evaluated 14 days after treatment
In short: as §2

| SMILES | herbicidal effect (herbicidal rate), Amaranthus viridis [%] |
| --- | --- |
| CCNC(=O)N(c1ccccc1Cc1c(C)n(C(C)c2ccccc2)oc1=O)S(=O)(=O)C(F)(F)F (stereo not drawn) [Compound 1-874] | 40 |
| C#CCn1oc(=O)c(Cc2ccccc2NS(=O)(=O)C(F)(F)F)c1C [Compound 1-138] | 40 |
| Cc1c(Cc2ccccc2N(S(=O)(=O)C(F)(F)F)S(=O)(=O)C(F)(F)F)c(=O)on1C(C)Cc1ccccc1 (stereo not drawn) [Compound 1-1045] | 60 |

tested on: southern crabgrass; assay: as above; format: in vivo; conditions: 120 g/10a active ingredient; emulsion sprayed seven days after seeding; evaluated 14 days after treatment
In short: as §2

| SMILES | herbicidal effect (herbicidal rate), southern crabgrass [%] |
| --- | --- |
| CCNC(=O)N(c1ccccc1Cc1c(C)n(C(C)c2ccccc2)oc1=O)S(=O)(=O)C(F)(F)F (stereo not drawn) [Compound 1-874] | 90 |
| C#CCn1oc(=O)c(Cc2ccccc2NS(=O)(=O)C(F)(F)F)c1C [Compound 1-138] | 80 |
| Cc1c(Cc2ccccc2N(S(=O)(=O)C(F)(F)F)S(=O)(=O)C(F)(F)F)c(=O)on1C(C)Cc1ccccc1 (stereo not drawn) [Compound 1-1045] | 40 |

tested on: broad leaf weeds (Lindernia pyxidaria and Monochoria vaginalis); assay: Test Example 2: herbicidal effect test by treatment during growing period in paddy rice cultivation (seven days after seeding); format: in vivo; conditions: Lindernia pyxidaria, 120 g/10a active ingredient, assessed 14 days after treatment, dry weight vs untreated area
In short: (§3)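 Emulsion formulations, diluted in water, applied dropwise to flooded pots (about 3 cm water) 7 days post-seeding at 120 g a.i./10 ares. Weeds sown 30 seeds each, 0–1 cm deep in puddled paddy soil; greenhouse. Readout: % reduction in plant dry weight vs untreated, day 14, duplicates.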

| SMILES | Herbicidal rate (%) Lindernia pyxidaria [%] |
| --- | --- |
| CCNC(=O)N(c1ccccc1Cc1c(C)n(C(C)c2ccccc2)oc1=O)S(=O)(=O)C(F)(F)F (stereo not drawn) [Compound 1-874] | 90 |
| C#CCn1oc(=O)c(Cc2ccccc2NS(=O)(=O)C(F)(F)F)c1C [Compound 1-138] | 80 |
| Cc1c(Cc2ccccc2N(S(=O)(=O)C(F)(F)F)S(=O)(=O)C(F)(F)F)c(=O)on1C(C)Cc1ccccc1 (stereo not drawn) [Compound 1-1045] | 60 |

same assay, conditions: Monochoria vaginalis, 120 g/10a active ingredient, assessed 14 days after treatment, dry weight vs untreated area

| SMILES | Herbicidal rate (%) Monochoria vaginalis [%] |
| --- | --- |
| CCNC(=O)N(c1ccccc1Cc1c(C)n(C(C)c2ccccc2)oc1=O)S(=O)(=O)C(F)(F)F (stereo not drawn) [Compound 1-874] | 90 |
| C#CCn1oc(=O)c(Cc2ccccc2NS(=O)(=O)C(F)(F)F)c1C [Compound 1-138] | 80 |
| Cc1c(Cc2ccccc2N(S(=O)(=O)C(F)(F)F)S(=O)(=O)C(F)(F)F)c(=O)on1C(C)Cc1ccccc1 (stereo not drawn) [Compound 1-1045] | 90 |

tested on: Echinochloa crus-galli; assay: as above; format: in vivo; conditions: 120 g/10a active ingredient, assessed 14 days after treatment, dry weight vs untreated area
In short: as §3

| SMILES | Herbicidal rate (%) Echinochloa crus-galli [%] |
| --- | --- |
| CCNC(=O)N(c1ccccc1Cc1c(C)n(C(C)c2ccccc2)oc1=O)S(=O)(=O)C(F)(F)F (stereo not drawn) [Compound 1-874] | 90 |
| C#CCn1oc(=O)c(Cc2ccccc2NS(=O)(=O)C(F)(F)F)c1C [Compound 1-138] | 90 |
| Cc1c(Cc2ccccc2N(S(=O)(=O)C(F)(F)F)S(=O)(=O)C(F)(F)F)c(=O)on1C(C)Cc1ccccc1 (stereo not drawn) [Compound 1-1045] | 90 |

tested on: Scirpus juncoides; assay: as above; format: in vivo; conditions: 120 g/10a active ingredient, assessed 14 days after treatment, dry weight vs untreated area
In short: as §3

| SMILES | Herbicidal rate (%) Scirpus juncoides [%] |
| --- | --- |
| CCNC(=O)N(c1ccccc1Cc1c(C)n(C(C)c2ccccc2)oc1=O)S(=O)(=O)C(F)(F)F (stereo not drawn) [Compound 1-874] | 90 |
| C#CCn1oc(=O)c(Cc2ccccc2NS(=O)(=O)C(F)(F)F)c1C [Compound 1-138] | 80 |
| Cc1c(Cc2ccccc2N(S(=O)(=O)C(F)(F)F)S(=O)(=O)C(F)(F)F)c(=O)on1C(C)Cc1ccccc1 (stereo not drawn) [Compound 1-1045] | 90 |

tested on: broad leaf weeds (Lindernia pyxidaria and Monochoria vaginalis); assay: Test Example 1: herbicidal effect test by treatment of rice paddy soil (immediately after seeding); format: in vivo; conditions: Lindernia pyxidaria, 120 g/10a active ingredient, dry weight vs untreated area, 14 days after treatment
In short: (§4)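 Applied at 120 g a.i./10 ares as diluted emulsion dropped into flooded (~3 cm) paddy soil pots right after sowing seeds 0–1 cm deep; greenhouse, two replicates. At day 14, dry weight of treated versus untreated plants gives % herbicidal rate.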

| SMILES | Herbicidal rate (%) Lindernia pyxidaria [%] |
| --- | --- |
| CCNC(=O)N(c1ccccc1Cc1c(C)n(C(C)c2ccccc2)oc1=O)S(=O)(=O)C(F)(F)F (stereo not drawn) [Compound 1-874] | 90 |
| C#CCn1oc(=O)c(Cc2ccccc2NS(=O)(=O)C(F)(F)F)c1C [Compound 1-138] | 100 |
| Cc1c(Cc2ccccc2N(S(=O)(=O)C(F)(F)F)S(=O)(=O)C(F)(F)F)c(=O)on1C(C)Cc1ccccc1 (stereo not drawn) [Compound 1-1045] | 90 |

same assay, conditions: Monochoria vaginalis, 120 g/10a active ingredient, dry weight vs untreated area, 14 days after treatment

| SMILES | Herbicidal rate (%) Monochoria vaginalis [%] |
| --- | --- |
| CCNC(=O)N(c1ccccc1Cc1c(C)n(C(C)c2ccccc2)oc1=O)S(=O)(=O)C(F)(F)F (stereo not drawn) [Compound 1-874] | 90 |
| C#CCn1oc(=O)c(Cc2ccccc2NS(=O)(=O)C(F)(F)F)c1C [Compound 1-138] | 100 |
| Cc1c(Cc2ccccc2N(S(=O)(=O)C(F)(F)F)S(=O)(=O)C(F)(F)F)c(=O)on1C(C)Cc1ccccc1 (stereo not drawn) [Compound 1-1045] | 80 |

tested on: Echinochloa crus-galli; assay: as above; format: in vivo; conditions: 120 g/10a active ingredient, dry weight vs untreated area, 14 days after treatment
In short: as §4

| SMILES | Herbicidal rate (%) Echinochloa crus-galli [%] |
| --- | --- |
| CCNC(=O)N(c1ccccc1Cc1c(C)n(C(C)c2ccccc2)oc1=O)S(=O)(=O)C(F)(F)F (stereo not drawn) [Compound 1-874] | 90 |
| C#CCn1oc(=O)c(Cc2ccccc2NS(=O)(=O)C(F)(F)F)c1C [Compound 1-138] | 90 |
| Cc1c(Cc2ccccc2N(S(=O)(=O)C(F)(F)F)S(=O)(=O)C(F)(F)F)c(=O)on1C(C)Cc1ccccc1 (stereo not drawn) [Compound 1-1045] | 100 |

tested on: Scirpus juncoides; assay: as above; format: in vivo; conditions: 120 g/10a active ingredient, dry weight vs untreated area, 14 days after treatment
In short: as §4

| SMILES | Herbicidal rate (%) Scirpus juncoides [%] |
| --- | --- |
| CCNC(=O)N(c1ccccc1Cc1c(C)n(C(C)c2ccccc2)oc1=O)S(=O)(=O)C(F)(F)F (stereo not drawn) [Compound 1-874] | 90 |
| C#CCn1oc(=O)c(Cc2ccccc2NS(=O)(=O)C(F)(F)F)c1C [Compound 1-138] | 90 |
| Cc1c(Cc2ccccc2N(S(=O)(=O)C(F)(F)F)S(=O)(=O)C(F)(F)F)c(=O)on1C(C)Cc1ccccc1 (stereo not drawn) [Compound 1-1045] | 90 |
